{"source": "patent US6562802B2", "about": "“Medical composition and uses thereof” (Noviscens AB, priority 1996, dated 2003)", "key": {"UV B radiation": {"system": "UV B radiation", "experiment": "biological light protection factor against UV B radiation, erythema score on skin of volunteers", "type": "in vivo, human", "conditions": "5.0% (w/w) in petrolatum, light exposure for 16 and 32 seconds, two volunteers", "protocol": "The biological light protection factor of the sunscreen formulation was determined at two concentrations of the active agent, P-PABA. The two formulations were prepared and tested at a concentration of 5.0% and 10% (w/w). For comparison, one control sunscreen agent was also studied. The UV B protection agent, ethylhexyl-4-dimethylaminobenzoic acid (EHD-PABA) was prepared at a concentration of 5.0% (w/w) in petrolatum. The test was performed on the skin of two volunteers, under standardized conditions by application of 0.1 ml of the formulation per 100 cm^2 of skin area on their backs.\nAn Osram Ultravitalux lamp was used as light source. The light protection factor was determined and compared to vehicle and untreated skin after light exposure on cylindrical (1.0 cm i.d.) skin areas for 16 and 32 seconds. The results were evaluated from intensity of the erythema score (FIG. 8; A) untreated control, b) 10% P-PABA, c) 5% P-PABA, D) vehicle, and E) EHD-PABA. Light exposure as indicated on each skin area for 16 seconds (left) and 32 seconds (right)). The biological protection against UV B radiation obtained by the UV B standard EHD-PABA absorber was almost similar to the protection by the polymeric P-PABA derivative."}, "[1]": {"experiment": "sunscreen index according to Kumler (UV absorbing characteristics)", "type": "physicochemical"}}, "data": [{"compound": "CCCCC(CC)COC(=O)c1ccc(N(C)C)cc1", "note": "(stereo not shown) [EHD-PABA, ethylhexyl-4-dimethylaminobenzoic acid]", "values": [{"measurement": "protection against UV B radiation (erythema score)", "setting": "UV B radiation", "value": "insufficient at 32 seconds in one of the volunteers"}]}, {"compound": "Nc1ccc(C(=O)O)cc1", "note": "[p-aminobenzoic acid (reference), p-aminobenzoic acid]", "values": [{"measurement": "Sunscreen index", "setting": "[1]", "value": 7.4}]}, {"compound": "PE-N-aminobenzoic acid [P-PABA]", "values": [{"measurement": "Sunscreen index", "setting": "[1]", "value": 6.2}, {"measurement": "protection against UV B radiation (erythema score)", "setting": "UV B radiation", "value": "complete"}]}]}
